# Laboratory results as given in patent US20020103228A1, “Composition and method for use of pyridinium derivatives in cosmetic and therapeutic applications” (TORRENT PHARMACEUTICALS LTD., priority 1999, published 2002).
# Like-named read-outs stand apart in the source and are kept apart here.
# Columns and labels:
# arterial stiffness = details: diabetes induced (Wolffenbutel 1998); cited from earlier work
# AGE-BSA = target: T1, AGE-BSA (Bos taurus, UniProt P02769); test: In-vitro AGE breaking activity by ELISA; type: biochemical, Bovine; details: 37° C., 24 hours
# T1 construct: Bovine serum albumin (fraction V) (BSA); from tissue; host or cells: bovine serum (fraction V); glycated in house with 1.6 M glucose at 37 °C for 16 weeks
# How it was run: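 BSA glycated with 1.6 M glucose in PBS at 37° C for 16 weeks, then dialyzed; 10 μg/ml AGE-BSA incubated with test compounds 24 h at 37° C. Remaining AGE-BSA coated at 5–20 ng/well and quantified by ELISA (anti-AGE-BSA primary, HRP anti-rabbit, OPD, OD 450–620 nm); % breaking calculated versus untreated 20 ng AGE-BSA.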
# [1] = test system: Rat-Tail Tendon collagen of diabetic male wister rats; details: 8 weeks of treatment
# Experimental: To evaluate AGE breaker efficacy of compounds of formula (I) the process of aging was mimicked by induction of diabetes in male wister rats. Diabetes was induced in male wister rats (by repeated STZ injections) to mimic the process of aging and formation of AGE. Diabetic male wister rats were treated with compounds of formula (I) for a period of 8 weeks after induction of diabetes and collagen solubility was measured in Rat-Tail Tendon. Rat Tail Tendon were selected because of their similarity with skin collagen (i.e. Type I collagen). After 8 weeks of treatment the “control” and “treated” groups of animals were sacrificed and tail tendons were homogenized, digested with hydrochloric acid and the supernatant of both the groups of animals was assayed for hydroxyprolin for acid soluble collagen contents as per method of Stegemann and Stalder (clinica Chimica Acta, 18 (1967) 267-273).
# Diabetes and aging are degenerative process where normal proteins like collagen become cross-linked. The cross linking of skin collagen can lead to complications like Aging. To test the ability of compounds of invention to break pre-formed AGE, diabetic animals were treated for 8 weeks with the compounds. After the treatment the collagen solubility was estimated to determine their AGE breaking activity.
# [2] = Free radical scavenging activity on ABTS radical cation; type: biochemical
# How it was run: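 ABTS radical cation generated with horseradish peroxidase and 1.08 mM H2O2 stock in PBS, preincubated 30 min at 30 °C. Serial dilutions were added, and absorbance at 730 nm was read immediately against PBS blank. % activity = (OD test/OD control ×100) − 100.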
# diabetic rats [3] = details: cited from earlier work
# [4] = test system: rat model of diabetic retinopathy; details: cited from earlier work
# diabetic rats [5] = details: cited from earlier work; remark: listed apart in the source
# old rats = details: Li et al (1996); cited from earlier work
# T1 sequence (P02769 25-607): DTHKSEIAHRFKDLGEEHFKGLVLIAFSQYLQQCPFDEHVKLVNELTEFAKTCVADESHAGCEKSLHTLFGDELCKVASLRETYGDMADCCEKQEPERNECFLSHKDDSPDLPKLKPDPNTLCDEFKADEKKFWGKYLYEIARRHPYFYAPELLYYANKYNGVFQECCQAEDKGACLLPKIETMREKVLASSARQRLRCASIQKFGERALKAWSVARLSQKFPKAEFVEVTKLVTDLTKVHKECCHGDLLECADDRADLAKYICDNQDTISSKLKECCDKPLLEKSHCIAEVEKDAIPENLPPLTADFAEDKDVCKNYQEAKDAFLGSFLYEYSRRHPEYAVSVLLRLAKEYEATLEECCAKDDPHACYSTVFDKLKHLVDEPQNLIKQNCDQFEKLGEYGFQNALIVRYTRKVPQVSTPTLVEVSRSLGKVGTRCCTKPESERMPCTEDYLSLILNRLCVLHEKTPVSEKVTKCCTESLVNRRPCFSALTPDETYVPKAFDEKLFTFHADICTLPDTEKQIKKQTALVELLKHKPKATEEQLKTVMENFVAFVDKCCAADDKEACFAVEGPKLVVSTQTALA
SMILES,% Breakage (AGE-BSA; 5 mM test compound),Relative Free Radical Scavenging Activity (%) on ABTS ([2]; 11.5 μM),Relative Free Radical Scavenging Activity (%) on ABTS ([2]; 23.0 μM),Relative Free Radical Scavenging Activity (%) on ABTS ([2]; 46.0 μM),Relative Free Radical Scavenging Activity (%) on ABTS ([2]; 92.5 μM),further results
Cc1sc[n+](CC(=O)c2ccccc2)c1C.[Cl-] [ALT-711],–,–,–,–,–,arterial stiffness and arterial compliance (arterial stiffness): reverse diabetes induced increase of arterial stiffness and improve arterial compliance
"O=C(NNC(=O)c1ccc[n+](CC(=O)c2cccs2)c1)c1ccc[n+](CC(=O)c2cccs2)c1.[Cl-].[Cl-] [Compound 33, N,N′-bis[3-carbonyl-1-(2-thien-2′-yl-2-oxoethyl)pyridinium]hydrazine dichloride]",20%,58.4%,72.8%,98.5%,100%,% Improvement in collagen solubility with respect to untreated control subject. ([1]; 15.0 mg/kg): 80.45%
"O=C(NNC(=O)c1ccc[n+](CC(=O)c2cccs2)c1)c1ccc[n+](CC(=O)c2cccs2)c1.[Br-].[Br-] [Compound 6, N,N′-bis[3-carbonyl-1-(2-thien-2′-yl-2-oxoethyl)pyridinium]hydrazine dibromide]",53%,–,–,–,–,% Improvement in collagen solubility with respect to untreated control subject. ([1]; 7.5 mg/kg): 56.70%
"O=C(C[n+]1cccc(C(=O)NNc2ccccc2)c1)Nc1ccccc1.[Cl-] [Compound 65, 1-(2-phenylamino-2-oxoethyl)-3-(phenyl hydrazinocarbonyl)pyridinium chloride]",–,27.67%,59.20%,94.14%,100.00%,% Breakage (AGE-BSA; 2.5 mM test compound): 68.35%
N=C(N)NN [Aminoguanidine],–,–,–,–,–,"development of diabetic nephropathy (diabetic rats [3]; Yamauchi (1997)): inhibits development of diabetic nephropathy; thickening of glomerular basement membrane (diabetic rats [3]; diabetic rats (Ellis 1991)): ameliorate thickening of glomerular basement membrane; rise in albuminuria (diabetic rats [3]; experimental diabetic rats (Soulis-Liparota, 1991)): attenuate the rise in albuminuria; progression of diabetic retinopathy [4]: retard progression of diabetic retinopathy; nerve conduction velocity (diabetic rats [5]): improve nerve conduction velocity; tissue damage in aging (old rats): significantly prevent tissue damage"
"O=C(C[n+]1cccc(C(=O)NNC(=O)c2ccc[n+](CC(=O)NC3CC3)c2)c1)NC1CC1.[Cl-].[Cl-] [Compound 39, N,N′-bis-[3-carbonyl-1-(2-cyclopropylamino-2-oxoethyl)pyridinium]hydrazine dichloride]",22.8%,43.0%,62.8%,95.6%,98%,% Improvement in collagen solubility with respect to untreated control subject. ([1]; 6.0 mg/kg): 28.00%
"CS(=O)(=O)NNC(=O)c1ccc[n+](CC(=O)c2cccs2)c1.[Br-] [Compound 5, 1-(2-thien-2′-yl-2-oxoethyl)-3-(methanesulfonylhydrazinocarbonyl)pyridinium bromide]",–,47.2%,65.6%,83.7%,100%,% Breakage (AGE-BSA; 10 mM test compound): 16%; % Breakage (AGE-BSA; 50 mM test compound): 68%; % Improvement in collagen solubility with respect to untreated control subject. ([1]; 10.0 mg/kg): 88.80%
